Source: the supplement of paper PMC10307832

Assays:
Experiment in all cases: relative viability (nuclei count vs DMSO), 5 days (fraction); higher = more cells survive
[1] = compound: NCC(=O)Nc1ccc(-n2nc(C(F)(F)F)cc2-c2ccc3c(ccc4ccccc43)c2)cc1 + Cc1nc(NC(=O)N2CCC[C@H]2C(N)=O)sc1-c1ccnc(C(C)(C)C(F)(F)F)c1 [Alpelisib] (partner 2 µM)
Procedure, shortened: (§1)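 Medians of duplicate plates are given as relative viability. That measure is the nuclei count in treated wells divided by the count in vehicle wells. Counts were taken on 4× images of lung cancer cell lines in 1536-well plates, 5 days after pin-tool dosing the day after seeding with one drug alone or a fixed anchor-drug dose plus five library-drug doses (not always all listed) in √10 steps.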

[2] = compound: NCC(=O)Nc1ccc(-n2nc(C(F)(F)F)cc2-c2ccc3c(ccc4ccccc43)c2)cc1 + COc1cccc2cc(-c3nc([C@H]4CC[C@H](C(=O)O)CC4)n4ncnc(N)c34)[nH]c12 [OSI-027] (partner 0.5 µM)
Procedure, shortened: as §1

[3] = compound: C1CSC2=C(C(=O)N1)SC3=C2C=C(C=C3)O [kb NB 142-70] + Cc1nc(Nc2ncc(C(=O)Nc3c(C)cccc3Cl)s2)cc(N2CCN(CCO)CC2)n1 [Dasatinib] (partner 0.075 µM)
Procedure, shortened: as §1

[4] = compound: NCC(=O)Nc1ccc(-n2nc(C(F)(F)F)cc2-c2ccc3c(ccc4ccccc43)c2)cc1 + O=C(CCCCCCC(=O)Nc1ccccc1)NO [Vorinostat] (partner 1 µM)
Procedure, shortened: as §1

Cell Line	relative viability ([1]; first compound 0.02 µM)	relative viability ([1]; first compound 0.06325 µM)	relative viability ([1]; first compound 0.2 µM)	relative viability ([1]; first compound 0.6325 µM)	relative viability ([1]; first compound 2 µM)	relative viability ([2]; first compound 0.02 µM)	relative viability ([2]; first compound 0.06325 µM)	relative viability ([2]; first compound 0.2 µM)	relative viability ([2]; first compound 0.6325 µM)	relative viability ([2]; first compound 2 µM)	relative viability ([3]; first compound 0.1 µM)	relative viability ([3]; first compound 1 µM)	relative viability ([3]; first compound 3.162 µM)	relative viability ([4]; first compound 0.02 µM)	relative viability ([4]; first compound 0.06325 µM)	relative viability ([4]; first compound 0.2 µM)	relative viability ([4]; first compound 0.6325 µM)	relative viability ([4]; first compound 2 µM)
EMC-BAC-2	0.742	0.75	0.764	0.772	0.715	0.292	0.367	0.371	0.361	0.387	0.363	0.305	0.235	0.454	0.511	0.569	0.514	0.488
LU99A	0.563	0.489	0.56	0.562	0.456	0.285	0.29	0.303	0.272	0.295	0.496	0.583	0.405	0.415	0.588	0.519	0.56	0.535
ABC-1	0.955	0.88	–	1.06	1.14	0.558	0.409	–	0.471	0.542	0.663	0.49	0.361	0.917	1.15	–	1.08	1.39
NCI-H2170	0.782	0.716	0.823	0.886	0.88	0.67	0.678	0.711	0.824	0.735	0.498	0.475	0.4	0.9	0.926	0.849	0.826	0.823
NCI-H1299	1.05	1.11	1.09	1.08	1.03	–	–	–	–	–	–	–	–	–	–	–	–	–
EBC-1	0.785	0.785	0.962	0.835	0.834	–	–	–	–	–	–	–	–	–	–	–	–	–
NCI-H2347	1.04	1.03	1.18	1.15	1.12	0.465	0.484	0.606	0.503	0.685	0.311	0.349	0.279	0.604	0.688	0.685	0.611	0.673
NCI-H1993	0.731	0.654	0.612	0.621	0.762	0.545	0.493	0.541	0.483	0.542	0.626	0.478	0.531	0.798	0.952	0.656	0.969	0.862
NCI-H322M	0.756	0.772	0.824	0.657	0.831	0.532	0.536	0.556	0.546	0.566	0.24	0.278	0.269	0.993	0.957	0.836	0.927	0.984
NCI-H838	0.971	1.01	1.12	0.916	0.933	0.406	0.461	0.428	0.425	0.469	0.268	0.282	0.301	0.772	0.708	0.857	0.681	0.728
HARA	0.859	0.958	0.844	0.831	0.867	0.434	0.582	0.597	0.549	0.596	0.3	0.188	0.237	0.552	0.518	0.596	0.578	0.551
NCI-H2087	1.14	0.82	1.06	1.16	0.945	0.543	0.612	0.546	0.483	0.626	0.907	1.04	0.608	0.752	0.618	0.809	0.649	0.668
NCI-H1437	0.944	0.995	0.999	0.913	0.918	0.889	0.898	0.877	0.881	0.951	0.485	0.459	0.433	0.834	0.866	0.887	0.802	0.754
NCI-H1648	–	–	–	–	–	0.248	0.262	0.257	0.227	0.273	–	–	–	0.416	0.423	0.762	0.408	0.536
NCI-H1792	0.67	0.859	0.77	0.751	0.736	0.657	–	0.824	0.722	0.803	0.757	0.816	0.769	–	–	–	–	–
ChaGo-K-1	–	–	–	–	–	0.475	0.661	0.468	0.592	0.548	0.509	0.559	0.543	0.667	0.794	0.725	0.725	0.76
HCC-44	0.752	0.832	0.817	0.709	0.785	0.461	0.743	0.592	0.651	0.497	–	–	–	1.17	1.19	1.03	1.05	1.12
A549	0.714	0.84	0.898	0.747	0.657	–	–	–	–	–	–	–	–	–	–	–	–	–
NCI-H1563	0.969	0.837	0.962	0.928	1.05	0.785	0.786	0.761	0.771	0.719	0.464	0.467	0.424	–	–	–	–	–
NCI-H522	–	–	–	–	–	–	0.785	0.697	0.699	0.713	1.03	0.856	0.704	0.91	0.836	0.802	0.973	0.903
IA-LM	0.776	0.715	0.937	0.784	0.782	–	–	–	–	–	–	–	–	0.989	1.08	0.981	0.908	0.896
NCI-H1703	0.377	0.306	0.343	0.353	0.385	–	–	–	–	–	–	–	–	–	–	–	–	–
SW 900	–	–	–	–	–	–	0.54	0.627	0.648	0.507	0.517	0.478	0.208	0.492	0.464	0.44	0.546	0.53
